IC50, K and Activity data for eleven compounds are collected here from ChEMBL document CHEMBL1152655, “Novel acenaphtho[1,2-b]pyrrole-carboxylic acid family: synthesis, cytotoxicity, DNA-binding and cell cycle evaluation” (Bioorg Med Chem, 2009).

Structures are written as SMILES. Active and inactive are the calls of the source. The rule behind the calls is not given here.

The test system of experiment [1] is HCT-8. Nature of the experiment: Cytotoxicity against human HCT8 cells after 48 hrs by MTT assay. It counts as functional, cell-based. To be noted: HCT-8, 48 h.
The subject of experiment [2] is HL-60. In words: Cytotoxicity against human HL60 cells after 48 hrs by MTT assay. In kind it is functional, cell-based. To be noted: HL-60, 48 h. Background: Formazan colour is commonly taken as a measure of viable cells.
The test system of experiment [3] is HeLa. Nature of the experiment: Cytotoxicity against human HeLa cells after 48 hrs by MTT assay. It counts as functional, cell-based.
Experiment [4] concerns Calf thymus DNA. Nature of the experiment: Binding affinity to calf thymus DNA. It counts as nucleic-acid assay. To be noted: Bos taurus.
Experiment [5] relates to A-375. In words: Cytotoxicity against human A375 cells after 48 hrs by MTT assay. It counts as functional, cell-based. To be noted: A-375, 48 h.
Experiment [6] relates to MCF7. In words: Cytotoxicity against human MCF7 cells after 48 hrs by MTT assay. It counts as functional, cell-based. Conditions: MCF7, 48 h.
For experiment [7], the system named is HeLa. Nature of the experiment: Cell cycle arrest in human HeLa cells by accumulation at S phase at 12.05 uM by flow cytometry (Rvb=28.20%). In kind it is functional.
Experiment [8] deals with HeLa. In words: Cell cycle arrest in human HeLa cells assessed as apoptotic cells at 12.05 uM by flow cytometry relative to control. It counts as functional.
Experiment [9] has as its system HeLa. Nature of the experiment: Cell cycle arrest in human HeLa cells by accumulation at S phase at 21.08 uM by flow cytometry (Rvb=28.20%). In kind it is functional.
Experiment [10] deals with HeLa. Nature of the experiment: Cell cycle arrest in human HeLa cells by accumulation at G2 phase at 3.01 uM by flow cytometry (Rvb=12.86%). In kind it is functional. A general note: Flow cytometry measures light scatter and fluorescence of single cells or particles in a stream.
For experiment [11], the system named is HeLa. Nature of the experiment: Cell cycle arrest in human HeLa cells by accumulation at G1 phase at 3.01 uM by flow cytometry (Rvb=58.94%). It counts as functional.
Experiment [12] concerns HeLa. Nature of the experiment: Cell cycle arrest in human HeLa cells assessed as apoptotic cells at 3.01 uM by flow cytometry relative to control. In kind it is functional.
Experiment [13] deals with Calf thymus DNA. In words: Binding affinity to calf thymus DNA assessed as increase in solution viscosity by viscometric titration. It counts as nucleic-acid assay. Conditions: Bos taurus.
The test system of experiment [14] is HeLa. Nature of the experiment: Cell cycle arrest in human HeLa cells by accumulation at G1 phase at 21.08 uM by flow cytometry (Rvb=58.94%). In kind it is functional.
The subject of experiment [15] is HeLa. Nature of the experiment: Cell cycle arrest in human HeLa cells assessed as apoptotic cells at 21.08 uM by flow cytometry relative to control. In kind it is functional.
For experiment [16], the system named is HeLa. In words: Cell cycle arrest in human HeLa cells by accumulation at S phase at 3.01 uM by flow cytometry (Rvb=28.20%). It counts as functional.
Experiment [17] deals with HeLa. Nature of the experiment: Cell cycle arrest in human HeLa cells by accumulation at G2 phase at 21.08 uM by flow cytometry (Rvb=12.86%). It counts as functional.
Experiment [18] concerns HeLa. In words: Cell cycle arrest in human HeLa cells by accumulation at G1 phase at 12.05 uM by flow cytometry (Rvb=58.94%). It counts as functional.
Experiment [19] concerns Calf thymus DNA. In words: Binding affinity to calf thymus DNA assessed as conformational change at 10 uM by CD spectra. It counts as nucleic-acid assay. Conditions: Bos taurus.
Experiment [20] relates to HeLa. In words: Cell cycle arrest in human HeLa cells by accumulation at G2 phase at 12.05 uM by flow cytometry (Rvb=12.86%). In kind it is functional.
Experiment [21] relates to Calf thymus DNA. Nature of the experiment: Binding affinity to calf thymus DNA assessed as DNA intercalation at 30 uM by UV-Vis absorption studies. In kind it is nucleic-acid assay. Conditions: Bos taurus.
Experiment [22] concerns HeLa. Nature of the experiment: Cell cycle arrest in human HeLa cells by accumulation at S phase at 28.65 uM by flow cytometry (Rvb=28.20%). It counts as functional.
The test system of experiment [23] is HeLa. In words: Cell cycle arrest in human HeLa cells by accumulation at G2 phase at 11.46 uM by flow cytometry (Rvb=12.86%). It counts as functional.
Experiment [24] has as its system HeLa. In words: Cell cycle arrest in human HeLa cells by accumulation at G2 phase at 20.06 uM by flow cytometry (Rvb=12.86%). It counts as functional.
Experiment [25] has as its system HeLa. Nature of the experiment: Cell cycle arrest in human HeLa cells by accumulation at G2 phase at 28.65 uM by flow cytometry (Rvb=12.86%). In kind it is functional.
In experiment [26] the test system is HeLa. Nature of the experiment: Cell cycle arrest in human HeLa cells by accumulation at G1 phase at 28.65 uM by flow cytometry (Rvb=58.94%). In kind it is functional.
For experiment [27], the system named is HeLa. In words: Cell cycle arrest in human HeLa cells assessed as apoptotic cells at 28.65 uM by flow cytometry relative to control. It counts as functional.
For experiment [28], the system named is HeLa. Nature of the experiment: Cell cycle arrest in human HeLa cells assessed as apoptotic cells at 20.06 uM by flow cytometry relative to control. It counts as functional.
For experiment [29], the system named is HeLa. Nature of the experiment: Cell cycle arrest in human HeLa cells by accumulation at G1 phase at 20.06 uM by flow cytometry (Rvb=58.94%). In kind it is functional.
Experiment [30] concerns HeLa. In words: Cell cycle arrest in human HeLa cells by accumulation at S phase at 11.46 uM by flow cytometry (Rvb=28.20%). In kind it is functional.
Experiment [31] relates to HeLa. Nature of the experiment: Cell cycle arrest in human HeLa cells by accumulation at S phase at 20.06 uM by flow cytometry (Rvb=28.20%). It counts as functional.
Experiment [32] concerns HeLa. Nature of the experiment: Cell cycle arrest in human HeLa cells by accumulation at G1 phase at 11.46 uM by flow cytometry (Rvb=58.94%). It counts as functional.
Experiment [33] relates to HeLa. In words: Cell cycle arrest in human HeLa cells assessed as apoptotic cells at 11.46 uM by flow cytometry relative to control. It counts as functional.

For the compound `CCN(CC)CCNc1ccc2c3c(cccc13)C1=NC(=O)C(C(=O)O)=C12`, the IC50 in experiment [1] was determined as 38.1 µM; in experiment [2], 19.8 µM; in experiment [3] it was 10.4 µM; in experiment [5] it was 71.8 µM; in [6] it was 16.5 µM. The compound also displayed a K in experiment [4] of 5.48 ×10⁵ /M.
Turning to `N#CC1=C2C(=NC1=O)c1cccc3c(N4CCSCC4)ccc2c13`, the IC50 in experiment [1] is 25.8 µM; in [2], 28.6 µM; in experiment [3], 15.7 µM; in experiment [5], 48.7 µM; in experiment [6], 41.2 µM.
On to `O=C(O)C1=C2C(=NC1=O)c1cccc3c(N4CCCCC4)ccc2c13`, for which the Activity in [7] came out at 30.52%; in experiment [8], 4.81%; in [9], 33.58%; in [10], 3.75%; in experiment [11], 64.63%; in experiment [12] it was 4.34%. The Activity result is “Dose-dependent effect” in experiment [13]; 53.67% in experiment [14]; 11.95% in experiment [15]; 31.63% in experiment [16]; 12.75% in experiment [17]; 60.02% in experiment [18]. Moreover, the Activity in experiment [20] was found to be 9.46%. The IC50 was 24.4 µM in experiment [1]; 20.5 µM in experiment [2]; 20.6 µM in experiment [3]; 18.4 µM in experiment [5]; 14.5 µM in experiment [6]. In addition, the K in experiment [4] amounted to 2.91 ×10⁵ /M. The outcome in [19] and in [21] was Active.
For the compound `CCCCNc1ccc2c3c(cccc13)C1=NC(=O)C(C(=O)O)=C12`, the IC50 in experiment [1] is 48.1 µM; in experiment [2], 24.1 µM; in experiment [3] it was 30.3 µM; in experiment [5], 50.1 µM; in [6], over 100 µM. Also, in experiment [4], the K came out at 4.73 ×10⁵ /M.
For `CN(C)CCNc1ccc2c3c(cccc13)C1=NC(=O)C(C(=O)O)=C12`, the IC50 in experiment [1] was over 100 µM; in [2], 47.9 µM; in experiment [3], 89.7 µM; in experiment [5] it was over 100 µM; in experiment [6] it was 97 µM. This compound yielded a K in [4] of 5.96 ×10⁵ /M.
On to `O=C(O)C1=C2C(=NC1=O)c1cccc3c(NCc4cccs4)ccc2c13`, for which the IC50 in experiment [1] is over 100 µM; in [2], 90 µM; in experiment [3], 84.3 µM; in experiment [5], over 100 µM; in [6], over 100 µM. Also, in [4], the K was 6.75 ×10⁵ /M.
Regarding `O=C(O)C1=C2C(=NC1=O)c1cccc3c(N4CCSCC4)ccc2c13`, the IC50 in experiment [1] was over 100 µM; in [2], 76.9 µM; in experiment [3], 48.9 µM; in [5] it was over 100 µM; in [6] it was over 100 µM. The K in experiment [4] came out at 2.69 ×10⁵ /M.
Consider `O=C(O)C1=C2C(=NC1=O)c1cccc3c(N4CCOCC4)ccc2c13`, for which the IC50 is over 100 µM in experiment [1]; 42.2 µM in experiment [2]; 36.2 µM in [3]; 79.4 µM in [5]; 18 µM in experiment [6]. This compound came in with a K in experiment [4] of 2.34 ×10⁵ /M.
Regarding `CN1CCN(c2ccc3c4c(cccc24)C2=NC(=O)C(C(=O)O)=C23)CC1`, the IC50 was determined as 72.1 µM in experiment [1]; 51 µM in experiment [2]; 17.2 µM in experiment [3]; 28.5 µM in [5]; 14.9 µM in experiment [6]. This compound also showed a K in experiment [4] of 6.13 ×10⁵ /M.
Regarding `COC(=O)C1=C2C(=NC1=O)c1cccc3c(N4CCSCC4)ccc2c13`, the IC50 in [1] was over 100 µM; in experiment [2] it was over 100 µM; in experiment [3] it was 26.9 µM; in [5], over 100 µM; in experiment [6] it was 68 µM.
Turning to `CN(C)CCCNc1ccc2c3c(cccc13)C1=NC(=O)C(C(=O)O)=C12`, the IC50 is over 100 µM in experiment [1]; 13.1 µM in [2]; 29.3 µM in [3]; over 100 µM in experiment [5]; 70.5 µM in [6]. Further, the Activity was 48.41% in [22]; 13.17% in experiment [23]; 18.6% in experiment [24]; “Dose-dependent effect” in experiment [13]; 17.49% in experiment [25]; 34.1% in experiment [26]. Besides, the Activity came to 13.89% in experiment [27]; 11.13% in experiment [28]; 35.97% in [29]; 35.96% in [30]; 45.43% in experiment [31]; 50.87% in experiment [32]. Moreover, in experiment [33], the Activity is given as 5.22%. The compound further yielded a K in experiment [4] of 6.01 ×10⁵ /M. The outcome in [19] and in [21] was Active.

As a reminder, the IC50 is the concentration needed to halve the response being measured. A high value points to lower potency.
